{"source": "ChEMBL document CHEMBL1201862", "about": "“PubChem BioAssay data set” (2004)", "key": {"Melanocortin receptor 4": {"biological_target": "Melanocortin receptor 4 (Homo sapiens, UniProt P32245)", "assay_type": "functional, cell-based"}, "INS1": {"system": "INS1", "experiment": "INS-1E survival protection against cytokine death – cell-based, luminescence, retest, dose response (AID 449756);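 also: cell death triggered by IL-1 beta plus TNF-alpha plus IFN-gamma mixture; protective hits raise ATP signal compared with cytokine alone wells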", "assay_type": "functional", "conditions": "Rattus norvegicus"}, "Integrin alpha-4": {"biological_target": "Integrin alpha-4 (Homo sapiens, UniProt P13612)", "sequence (P13612 whole entry)": "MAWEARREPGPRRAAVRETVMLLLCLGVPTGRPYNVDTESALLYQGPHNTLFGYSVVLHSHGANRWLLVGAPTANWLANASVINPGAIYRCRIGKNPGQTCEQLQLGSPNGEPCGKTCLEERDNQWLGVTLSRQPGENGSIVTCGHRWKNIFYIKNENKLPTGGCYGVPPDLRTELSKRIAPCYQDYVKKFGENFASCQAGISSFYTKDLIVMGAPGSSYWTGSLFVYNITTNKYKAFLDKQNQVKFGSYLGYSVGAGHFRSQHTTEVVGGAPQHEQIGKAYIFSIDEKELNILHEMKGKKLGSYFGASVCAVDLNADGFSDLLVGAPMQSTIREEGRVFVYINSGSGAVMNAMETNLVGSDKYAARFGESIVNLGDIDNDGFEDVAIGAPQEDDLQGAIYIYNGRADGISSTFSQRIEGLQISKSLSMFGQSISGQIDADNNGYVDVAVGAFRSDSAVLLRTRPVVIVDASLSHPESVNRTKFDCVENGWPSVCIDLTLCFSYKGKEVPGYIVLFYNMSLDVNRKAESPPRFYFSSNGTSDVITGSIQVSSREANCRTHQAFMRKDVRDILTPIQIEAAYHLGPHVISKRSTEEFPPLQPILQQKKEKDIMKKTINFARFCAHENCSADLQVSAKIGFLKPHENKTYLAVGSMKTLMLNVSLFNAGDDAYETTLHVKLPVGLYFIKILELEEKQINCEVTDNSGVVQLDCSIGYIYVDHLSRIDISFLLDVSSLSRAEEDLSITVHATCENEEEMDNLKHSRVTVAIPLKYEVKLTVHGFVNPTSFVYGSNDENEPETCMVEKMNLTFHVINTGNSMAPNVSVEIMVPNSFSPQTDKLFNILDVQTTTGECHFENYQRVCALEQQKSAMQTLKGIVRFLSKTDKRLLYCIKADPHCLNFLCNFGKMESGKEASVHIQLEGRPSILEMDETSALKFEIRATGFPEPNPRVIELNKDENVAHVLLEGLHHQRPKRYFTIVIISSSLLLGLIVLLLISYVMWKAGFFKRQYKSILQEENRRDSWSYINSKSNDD", "experiment": "allosteric modulators of alpha4 integrin VLA-4 – cell-based, LIBS antibody binding, flow cytometry, SAR follow-up (AID 488791)", "assay_type": "functional"}, "[1]": {"experiment": "general cell-killing toxicity readout – plate reader, dry powder samples, cytotoxicity control for PAX8 inhibitor project, dose response (AID 743021)", "assay_type": "functional, cell-based"}, "[2]": {"biological_target": "T1, Ubiquitin-conjugating enzyme E2 N (Homo sapiens, UniProt P61088)", "T1 sequence (P61088 whole entry)": "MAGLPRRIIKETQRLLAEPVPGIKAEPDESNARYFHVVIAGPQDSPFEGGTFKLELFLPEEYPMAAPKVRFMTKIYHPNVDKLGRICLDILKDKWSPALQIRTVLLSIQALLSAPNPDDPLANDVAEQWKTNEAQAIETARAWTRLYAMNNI", "assay_type": "functional"}, "Paired box protein Pax-8": {"biological_target": "Paired box protein Pax-8 (Homo sapiens, UniProt Q06710)", "sequence (Q06710 whole entry)": "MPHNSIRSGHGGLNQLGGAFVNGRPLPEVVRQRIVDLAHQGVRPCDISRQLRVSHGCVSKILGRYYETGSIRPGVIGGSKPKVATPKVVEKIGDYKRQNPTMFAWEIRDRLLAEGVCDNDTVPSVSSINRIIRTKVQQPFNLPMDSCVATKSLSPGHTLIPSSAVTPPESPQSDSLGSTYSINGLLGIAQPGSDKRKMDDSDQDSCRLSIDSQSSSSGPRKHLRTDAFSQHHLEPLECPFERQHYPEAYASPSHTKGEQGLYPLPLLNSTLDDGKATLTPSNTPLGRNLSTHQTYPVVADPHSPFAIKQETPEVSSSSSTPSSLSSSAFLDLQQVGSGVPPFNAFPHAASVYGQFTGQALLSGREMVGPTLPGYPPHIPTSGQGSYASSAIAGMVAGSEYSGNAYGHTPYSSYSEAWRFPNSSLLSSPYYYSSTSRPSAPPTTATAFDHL", "experiment": "PAX8 transcriptional activity inhibition in RMG-I – RMG-I cells, luciferase, cherry-pick, dose response (AID 687027);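 also: luciferase reporter driven by Pax8 target thyroperoxidase promoter measured by SteadyGlo luminescence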", "assay_type": "functional, cell-based"}, "[3]": {"experiment": "Luminescence Cell-Based Dose Retest to Confirm Inhibitors of Cancer Stem Cells. [Related pubchem assays (depositor defined):AID2717, AID2721]", "assay_type": "functional", "conditions": "Homo sapiens"}, "[4]": {"biological_target": "Multidrug resistance protein CDR2 (Candida albicans (strain SC5314 / ATCC MYA-2876) (Yeast), UniProt P78595)", "sequence (P78595 whole entry)": "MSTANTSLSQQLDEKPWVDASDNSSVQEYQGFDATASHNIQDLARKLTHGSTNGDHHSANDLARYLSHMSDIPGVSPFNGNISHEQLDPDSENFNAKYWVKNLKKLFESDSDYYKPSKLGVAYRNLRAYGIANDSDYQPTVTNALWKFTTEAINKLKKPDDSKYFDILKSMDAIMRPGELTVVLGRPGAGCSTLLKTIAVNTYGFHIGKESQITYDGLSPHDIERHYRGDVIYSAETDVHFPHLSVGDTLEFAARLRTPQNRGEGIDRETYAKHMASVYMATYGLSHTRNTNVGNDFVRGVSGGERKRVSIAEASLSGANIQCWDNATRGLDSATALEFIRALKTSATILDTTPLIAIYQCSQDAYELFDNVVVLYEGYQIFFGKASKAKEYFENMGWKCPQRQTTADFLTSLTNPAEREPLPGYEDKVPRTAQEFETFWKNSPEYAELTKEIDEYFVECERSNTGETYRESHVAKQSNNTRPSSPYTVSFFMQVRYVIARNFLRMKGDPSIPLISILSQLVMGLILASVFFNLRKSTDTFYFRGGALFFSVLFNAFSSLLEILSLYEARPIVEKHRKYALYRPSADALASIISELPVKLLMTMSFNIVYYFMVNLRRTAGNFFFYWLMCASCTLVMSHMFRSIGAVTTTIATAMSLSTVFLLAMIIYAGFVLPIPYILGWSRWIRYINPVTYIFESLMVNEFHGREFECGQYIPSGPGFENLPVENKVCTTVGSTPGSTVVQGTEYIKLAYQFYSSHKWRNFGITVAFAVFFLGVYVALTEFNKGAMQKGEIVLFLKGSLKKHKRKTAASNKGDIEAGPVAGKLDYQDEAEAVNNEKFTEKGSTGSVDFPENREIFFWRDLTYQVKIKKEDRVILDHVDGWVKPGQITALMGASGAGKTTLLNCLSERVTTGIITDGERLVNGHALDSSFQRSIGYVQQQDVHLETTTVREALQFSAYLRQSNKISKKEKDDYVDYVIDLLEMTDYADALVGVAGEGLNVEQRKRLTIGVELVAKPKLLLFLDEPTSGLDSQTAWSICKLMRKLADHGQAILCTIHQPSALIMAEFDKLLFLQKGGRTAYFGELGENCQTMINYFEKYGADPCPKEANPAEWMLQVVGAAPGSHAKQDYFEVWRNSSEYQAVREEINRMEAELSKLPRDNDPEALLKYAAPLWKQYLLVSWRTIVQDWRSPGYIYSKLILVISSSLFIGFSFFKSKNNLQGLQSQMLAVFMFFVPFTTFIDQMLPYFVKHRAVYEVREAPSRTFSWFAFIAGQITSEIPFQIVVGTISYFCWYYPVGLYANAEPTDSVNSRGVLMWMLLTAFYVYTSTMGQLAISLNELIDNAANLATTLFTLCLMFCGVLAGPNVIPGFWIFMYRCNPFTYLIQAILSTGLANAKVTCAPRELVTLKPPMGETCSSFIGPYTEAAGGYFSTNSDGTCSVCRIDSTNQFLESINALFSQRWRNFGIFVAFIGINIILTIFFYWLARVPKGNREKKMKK", "experiment": "blockers of Nile Red efflux by Candida CDR2 – S. cerevisiae AD1-8u, singleplex, Cherry Pick2 set, dose response (AID 623994)", "assay_type": "functional", "conditions": "read-out: EC50_MICROM"}, "[5]": {"biological_target": "26S proteasome non-ATPase regulatory subunit 14 (Homo sapiens, UniProt O00487)", "experiment": "inhibition of proteasome subunit RPN11 – biochemical, fluorescence polarization, uHTS hits, confirmation (AID 602368)", "assay_type": "functional"}, "Beta-galactosidase": {"biological_target": "Beta-galactosidase (Escherichia coli, UniProt Q8VNN2)", "sequence (Q8VNN2 whole entry)": "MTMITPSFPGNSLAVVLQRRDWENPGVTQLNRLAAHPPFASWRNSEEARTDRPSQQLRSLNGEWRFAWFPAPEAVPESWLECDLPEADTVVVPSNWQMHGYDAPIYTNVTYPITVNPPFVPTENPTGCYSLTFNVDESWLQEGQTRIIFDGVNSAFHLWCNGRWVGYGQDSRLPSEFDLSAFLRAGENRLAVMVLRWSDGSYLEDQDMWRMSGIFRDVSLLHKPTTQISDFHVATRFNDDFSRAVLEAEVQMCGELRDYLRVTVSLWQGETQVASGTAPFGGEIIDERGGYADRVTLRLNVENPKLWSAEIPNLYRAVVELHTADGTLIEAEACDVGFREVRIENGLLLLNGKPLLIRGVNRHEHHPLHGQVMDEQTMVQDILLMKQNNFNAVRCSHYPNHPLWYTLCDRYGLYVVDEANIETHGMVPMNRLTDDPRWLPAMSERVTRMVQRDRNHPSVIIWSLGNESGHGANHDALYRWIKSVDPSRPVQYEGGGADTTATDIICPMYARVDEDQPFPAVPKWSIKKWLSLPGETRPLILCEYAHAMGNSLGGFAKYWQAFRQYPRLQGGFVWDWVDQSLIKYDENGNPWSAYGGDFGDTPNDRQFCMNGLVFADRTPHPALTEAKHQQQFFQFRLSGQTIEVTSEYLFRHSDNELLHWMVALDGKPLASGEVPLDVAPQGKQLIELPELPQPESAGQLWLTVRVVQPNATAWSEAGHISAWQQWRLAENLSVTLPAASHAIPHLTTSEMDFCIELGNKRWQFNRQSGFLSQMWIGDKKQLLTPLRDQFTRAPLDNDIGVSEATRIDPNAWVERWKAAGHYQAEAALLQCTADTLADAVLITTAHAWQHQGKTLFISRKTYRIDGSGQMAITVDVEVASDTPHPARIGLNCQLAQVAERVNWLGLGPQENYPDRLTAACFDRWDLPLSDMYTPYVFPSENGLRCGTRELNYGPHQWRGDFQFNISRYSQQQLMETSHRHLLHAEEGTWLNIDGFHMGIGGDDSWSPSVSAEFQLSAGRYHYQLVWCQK", "assay_type": "functional"}, "[6]": {"biological_target": "72 kDa type IV collagenase (Homo sapiens, UniProt P08253)", "sequence (P08253 whole entry)": "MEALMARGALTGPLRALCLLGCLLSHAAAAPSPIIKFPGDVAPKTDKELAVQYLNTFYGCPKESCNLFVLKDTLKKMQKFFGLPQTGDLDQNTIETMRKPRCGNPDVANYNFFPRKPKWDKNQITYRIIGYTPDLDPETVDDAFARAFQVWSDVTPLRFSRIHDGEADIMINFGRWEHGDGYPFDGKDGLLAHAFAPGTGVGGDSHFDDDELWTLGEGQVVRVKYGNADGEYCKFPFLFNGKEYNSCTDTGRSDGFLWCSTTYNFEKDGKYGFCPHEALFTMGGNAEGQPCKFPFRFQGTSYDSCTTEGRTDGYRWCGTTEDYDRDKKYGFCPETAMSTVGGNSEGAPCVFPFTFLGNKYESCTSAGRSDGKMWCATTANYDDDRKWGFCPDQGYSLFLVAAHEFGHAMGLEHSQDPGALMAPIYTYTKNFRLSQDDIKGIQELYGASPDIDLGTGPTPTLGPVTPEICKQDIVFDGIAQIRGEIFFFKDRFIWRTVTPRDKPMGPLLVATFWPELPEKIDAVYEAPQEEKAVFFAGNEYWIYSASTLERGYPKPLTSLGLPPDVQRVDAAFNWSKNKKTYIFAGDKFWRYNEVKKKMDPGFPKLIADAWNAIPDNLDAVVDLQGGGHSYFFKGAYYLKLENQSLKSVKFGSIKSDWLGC", "experiment": "Dose Response validation of uHTS RPN11 inhibitor hits using a MMP-2 Fluorescence assay.", "assay_type": "functional"}, "[7]": {"experiment": "Counterscreen for IDE inhibitors: Luminescence-based cell-based high throughput dose response assay to identify compounds that are cytotoxic to HEK cells. [Related pubchem assays: 434962 (Primary screen (IDE inhibitors in singlicate)), 449730 (Counterscreen (Cytotoxicity in triplicate)), 435028 (Confirmation (IDE inhibitors in triplicate)) …", "assay_type": "functional", "conditions": "HEK293"}, "Insulin-degrading enzyme": {"biological_target": "T2, Insulin-degrading enzyme (Homo sapiens, UniProt P14735)", "T2 sequence (P14735 whole entry)": "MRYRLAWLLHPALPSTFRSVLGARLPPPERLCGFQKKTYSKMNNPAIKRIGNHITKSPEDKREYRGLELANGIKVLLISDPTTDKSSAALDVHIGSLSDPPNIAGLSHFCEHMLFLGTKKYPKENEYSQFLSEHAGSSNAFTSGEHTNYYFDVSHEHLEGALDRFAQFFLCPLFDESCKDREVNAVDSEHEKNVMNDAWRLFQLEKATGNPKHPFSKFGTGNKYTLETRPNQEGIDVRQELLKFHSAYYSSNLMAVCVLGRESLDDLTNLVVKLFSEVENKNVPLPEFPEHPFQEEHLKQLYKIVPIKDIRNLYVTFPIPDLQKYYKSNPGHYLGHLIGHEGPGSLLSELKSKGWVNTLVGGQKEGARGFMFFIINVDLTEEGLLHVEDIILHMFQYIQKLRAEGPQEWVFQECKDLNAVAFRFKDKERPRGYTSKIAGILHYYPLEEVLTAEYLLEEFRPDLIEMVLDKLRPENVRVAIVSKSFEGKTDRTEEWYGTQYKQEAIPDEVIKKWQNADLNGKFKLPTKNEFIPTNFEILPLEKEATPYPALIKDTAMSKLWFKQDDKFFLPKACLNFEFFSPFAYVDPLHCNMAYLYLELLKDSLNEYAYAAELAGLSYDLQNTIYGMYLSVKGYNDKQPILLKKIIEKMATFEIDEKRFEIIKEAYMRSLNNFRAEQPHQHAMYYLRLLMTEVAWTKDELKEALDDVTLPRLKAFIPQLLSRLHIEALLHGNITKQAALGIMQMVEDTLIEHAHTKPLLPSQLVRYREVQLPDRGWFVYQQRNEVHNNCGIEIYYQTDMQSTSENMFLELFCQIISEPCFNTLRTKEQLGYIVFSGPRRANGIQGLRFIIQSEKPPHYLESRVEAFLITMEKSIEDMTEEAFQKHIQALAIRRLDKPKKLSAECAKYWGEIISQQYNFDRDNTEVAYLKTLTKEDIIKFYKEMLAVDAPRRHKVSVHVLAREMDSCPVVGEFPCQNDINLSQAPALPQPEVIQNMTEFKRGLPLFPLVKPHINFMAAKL", "experiment": "Dose Response: Fluorescence polarization-based cell-based high throughput dose response assay for inhibitors of insulin-degrading enzyme (IDE). [Related pubchem assays: 434962 (Primary screen (IDE inhibitors in singlicate)), 449730 (Counterscreen (Cytotoxicity in triplicate)), 435028 (Confirmation (IDE inhibitors in triplicate)), 434984 (Summary …", "assay_type": "functional"}, "Prothrombin": {"biological_target": "Prothrombin (Bos taurus, UniProt P00735)", "experiment": "thrombin protease inhibitors – biochemical, fluorescence polarization, uHTS hits, dose response (AID 602369)", "assay_type": "functional"}, "[8]": {"biological_target": "T3, Kappa-type opioid receptor (Homo sapiens, UniProt P41145)", "T3 sequence (P41145 whole entry)": "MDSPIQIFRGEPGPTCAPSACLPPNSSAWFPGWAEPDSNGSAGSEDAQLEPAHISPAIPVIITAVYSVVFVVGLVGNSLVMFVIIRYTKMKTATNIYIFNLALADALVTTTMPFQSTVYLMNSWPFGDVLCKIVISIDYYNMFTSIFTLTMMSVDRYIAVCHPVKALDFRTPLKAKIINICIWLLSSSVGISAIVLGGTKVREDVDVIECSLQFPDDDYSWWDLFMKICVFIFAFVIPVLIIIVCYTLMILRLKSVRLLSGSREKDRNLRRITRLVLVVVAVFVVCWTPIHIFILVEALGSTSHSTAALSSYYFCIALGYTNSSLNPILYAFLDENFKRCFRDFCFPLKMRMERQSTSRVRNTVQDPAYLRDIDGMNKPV", "assay_type": "functional"}, "[9]": {"biological_target": "T4, Rac GTPase-activating protein 1 (Homo sapiens, UniProt Q9H0H5)", "T4 sequence (Q9H0H5 whole entry)": "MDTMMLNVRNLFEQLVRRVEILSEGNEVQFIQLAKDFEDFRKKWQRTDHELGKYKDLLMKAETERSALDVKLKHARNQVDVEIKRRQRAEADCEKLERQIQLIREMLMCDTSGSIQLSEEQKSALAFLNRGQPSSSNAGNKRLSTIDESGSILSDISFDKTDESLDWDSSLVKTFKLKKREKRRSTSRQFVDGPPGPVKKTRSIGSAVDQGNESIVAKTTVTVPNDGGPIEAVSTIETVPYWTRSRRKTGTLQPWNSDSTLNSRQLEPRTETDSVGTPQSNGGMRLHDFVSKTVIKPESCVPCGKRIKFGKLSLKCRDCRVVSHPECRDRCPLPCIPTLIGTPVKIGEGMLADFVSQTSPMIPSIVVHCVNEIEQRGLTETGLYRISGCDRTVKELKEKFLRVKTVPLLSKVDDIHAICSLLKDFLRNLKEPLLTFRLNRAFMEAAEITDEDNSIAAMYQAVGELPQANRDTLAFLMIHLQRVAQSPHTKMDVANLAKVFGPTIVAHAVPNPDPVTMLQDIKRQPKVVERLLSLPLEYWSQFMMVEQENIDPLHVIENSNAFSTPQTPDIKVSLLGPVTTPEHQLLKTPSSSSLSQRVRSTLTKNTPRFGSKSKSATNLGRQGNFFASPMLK", "experiment": "blockers of MgcRacGAP-driven Rac1 GTP hydrolysis – biochemical, ADP Hunter fluorescence, primary and confirmatory, confirmation (AID 624330)", "assay_type": "functional"}, "[10]": {"biological_target": "T3, Kappa-type opioid receptor", "assay_type": "functional", "remark": "listed apart in the source"}, "Vero [11]": {"system": "Vero", "experiment": "Vero 76 cell viability after compound exposure – Vero 76 cells, synthesized analogs, cytotoxicity control for West Nile virus antiviral project, SAR follow-up (AID 2414)", "assay_type": "functional", "conditions": "Chlorocebus sabaeus"}, "Vero [12]": {"system": "Vero", "experiment": "antiviral protection of cells from WNV – synthesized analogs, SAR follow-up (AID 2238)", "assay_type": "functional, cell-based", "conditions": "Chlorocebus sabaeus"}, "Vero [13]": {"system": "Vero", "experiment": "Vero cell viability after compound exposure – synthesized analogs, set II, cytotoxicity control for West Nile virus antiviral project, SAR follow-up (AID 2402)", "assay_type": "functional", "conditions": "Chlorocebus sabaeus"}, "Vero [14]": {"system": "Vero", "experiment": "host cell viability loss, Vero E6 – synthesized analogs, cytotoxicity control for West Nile virus antiviral project, SAR follow-up (AID 2244)", "assay_type": "functional", "conditions": "Chlorocebus sabaeus"}, "[15]": {"experiment": "A Cell Based Assay for the Identification of Probe candidate Compounds with Anti- Venezuelan Equine Encephalitis virus. [Related pubchem assays: 2409, 2419, 1621, 2238, 2405, 2024, 2065, 2402, 2414, 1635, 1650, 2244 ]", "assay_type": "functional"}, "[16]": {"biological_target": "E3 ubiquitin-protein ligase Mdm2/Protein Mdm4 (Homo sapiens, UniProt O15151+Q00987)", "experiment": "disruption of Mdm2/MdmX protein binding – luminescence detection, dose response (AID 504593)", "assay_type": "functional"}, "[17]": {"experiment": "HEK-293T viability loss after treatment – luminescence, T-cell screen hits, cytotoxicity control for TCR NF-kB inhibitor project, dose response (AID 489026);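 also: cells exposed to compound about 14 hours before the viability readout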", "assay_type": "functional, cell-based"}, "[18]": {"experiment": "antiviral efficacy against SV40, host toxicity – BSC cells, set 3, confirmation (AID 485276)", "assay_type": "functional, cell-based"}}, "note": "pIC50: −log10 of the molar value. Active and inactive are the calls of the source."}
{"smiles": "COc1ccc(-c2sc3ccccc3c2-c2ccc(OCCN(C)C)cc2)cc1", "values": [{"measurement": "EC50", "setting": "Melanocortin receptor 4", "value": "> 89.2 µM (inactive)"}, {"measurement": "AC50", "setting": "INS1", "value": "8.01 µM (active)"}, {"measurement": "EC50", "setting": "Integrin alpha-4", "value": "> 57 µM (inactive)"}, {"measurement": "AC50", "setting": "[1]", "value": "1.69 µM (active)"}, {"measurement": "IC50", "setting": "[2]", "value": "> 20 µM (inactive)"}, {"measurement": "AC50", "setting": "Paired box protein Pax-8", "value": "13 µM (active)"}, {"measurement": "AC50", "setting": "[3]", "value": "3.45 µM (active)"}, {"measurement": "EC50", "setting": "[4]", "value": "57.1 µM (active)"}]}
{"smiles": "COc1cc(/C=C2/SC(=S)N(c3c(C)n(C)n(-c4ccccc4)c3=O)C2=O)ccc1O", "values": [{"measurement": "IC50", "setting": "[5]", "value": "24.4 µM (active)"}, {"measurement": "EC50", "setting": "Beta-galactosidase", "value": "13 µM (active)"}, {"measurement": "IC50", "setting": "[6]", "value": "62.4 µM (active)"}, {"measurement": "IC50", "setting": "[7]", "value": "> 55.7 µM (not active)"}, {"measurement": "IC50", "setting": "Insulin-degrading enzyme", "value": "7.99 µM (active)"}, {"measurement": "IC50", "setting": "Prothrombin", "value": "68.1 µM (active)"}, {"measurement": "IC50", "setting": "[8]", "value": "12.7 µM (active)"}, {"measurement": "IC50", "setting": "[9]", "value": "43.7 µM (active)"}, {"measurement": "pIC50", "setting": "[10]", "value": "< 4.49"}]}
{"smiles": "CCCN1CCN(CCCNC(=O)c2cc3c(s2)-c2c(C)cccc2OC3)CC1", "values": [{"measurement": "CC50", "setting": "Vero [11]", "value": "28.4 µM (active)"}, {"measurement": "IC50", "setting": "Vero [12]", "value": "> 40 µM (active)"}, {"measurement": "CC50", "setting": "Vero [13]", "value": "12.3 µM (active)"}, {"measurement": "CC50", "setting": "Vero [14]", "value": "12.4 µM (active)"}, {"measurement": "IC50", "setting": "[2]", "value": "> 20 µM (inactive)"}, {"measurement": "IC50", "setting": "[15]", "value": "10.4 µM (active)"}]}
{"smiles": "CCOC(=O)c1ccc(Nc2nc(N)c3cc(OC)c(OC)cc3n2)cc1", "values": [{"measurement": "IC50", "setting": "[16]", "value": "> 79 µM (inactive)"}, {"measurement": "IC50", "setting": "[17]", "value": "> 80 µM (inactive)"}]}
{"smiles": "CC(C)(c1ccc(O)cc1)c1ccc(O)cc1", "note": "[BISPHENOL A]", "values": [{"measurement": "IC50", "setting": "[18]", "value": "9.3 µM (active)"}]}
